This passage reports mutagenic call results from PubChem BioAssay AID1259407 (Chemical Carcinogenesis Research Information System (CCRIS), 2018).

Activity calls are given as the source filed them. The rule behind the calls is not given here.

The data set deals with CCRIS mutagenicity, Ames/micronucleus/aberration tests. Briefly: CCRIS mutagenicity studies.
The mark [1] stands for this setting: Test System: AMES SALMONELLA TYPHIMURIUM, Strain/Indicator: TA98, Metabolic Activation: NONE, Method: PREINCUBATION
Where [2] appears, read: Test System: AMES SALMONELLA TYPHIMURIUM, Strain/Indicator: TA100, Metabolic Activation: NONE, Method: PREINCUBATION
Where [3] appears, read: Test System: AMES SALMONELLA TYPHIMURIUM, Strain/Indicator: TA98, Metabolic Activation: NONE, Method: STANDARD PLATE.
[4] abbreviates: Test System: AMES SALMONELLA TYPHIMURIUM, Strain/Indicator: TA100, Metabolic Activation: NONE, Method: STANDARD PLATE.
The mark [5] stands for this setting: Test System: AMES SALMONELLA TYPHIMURIUM, Strain/Indicator: TA98, Metabolic Activation: RAT, LIVER, S-9, AROCLOR 1254, Method: STANDARD PLATE.
Where [6] appears, read: Test System: AMES SALMONELLA TYPHIMURIUM, Strain/Indicator: TA100, Metabolic Activation: RAT, LIVER, S-9, AROCLOR 1254, Method: STANDARD PLATE.
[7] abbreviates: Test System: AMES SALMONELLA TYPHIMURIUM, Strain/Indicator: TA1535, Metabolic Activation: NONE, Method: STANDARD PLATE.
[8] abbreviates: Test System: AMES SALMONELLA TYPHIMURIUM, Strain/Indicator: TA1535, Metabolic Activation: RAT, LIVER, S-9, AROCLOR 1254, Method: STANDARD PLATE.
The mark [9] stands for this setting: Test System: AMES SALMONELLA TYPHIMURIUM, Strain/Indicator: TA1537, Metabolic Activation: NONE, Method: STANDARD PLATE.
Where [10] appears, read: Test System: AMES SALMONELLA TYPHIMURIUM, Strain/Indicator: TA1537, Metabolic Activation: RAT, LIVER, S-9, AROCLOR 1254, Method: STANDARD PLATE.

For `Nc1c(Cl)cc([N+](=O)[O-])cc1Cl`, the mutagenic call is, setting by setting: (Test System: AMES SALMONELLA TYPHIMURIUM, Strain/Indicator: TA98, Metabolic Activation: HAMSTER, LIVER, S-9, AROCLOR 1254 (30%), Method: PREINCUBATION) “active; positive”; under setting [1], “active; positive”; (Test System: AMES SALMONELLA TYPHIMURIUM, Strain/Indicator: TA98, Metabolic Activation: RAT, LIVER, S-9, AROCLOR 1254 (30%), Method: PREINCUBATION) “active; positive”; (Test System: AMES SALMONELLA TYPHIMURIUM, Strain/Indicator: TA100, Metabolic Activation: HAMSTER, LIVER, S-9, AROCLOR 1254 (30%), Method: PREINCUBATION) “inactive; negative”; under setting [2], “inactive; negative”; (Test System: AMES SALMONELLA TYPHIMURIUM, Strain/Indicator: TA100, Metabolic Activation: RAT, LIVER, S-9, AROCLOR 1254 (30%), Method: PREINCUBATION) “inactive; negative”. Besides, the mutagenic call (Test System: AMES SALMONELLA TYPHIMURIUM, Strain/Indicator: TA100, Metabolic Activation: RAT, LIVER, S-9, KANECHLOR 500, Method: PREINCUBATION) is “inactive; negative”.
As to `Oc1c(Br)c(Br)c(Br)c(Br)c1Br`, the mutagenic call was “inactive; negative” (Test System: AMES SALMONELLA TYPHIMURIUM, Strain/Indicator: TA98, Metabolic Activation: HAMSTER, LIVER, S-9, AROCLOR 1254 (10%), Method: PREINCUBATION); “inactive; negative” under setting [1]; “inactive; negative” (Test System: AMES SALMONELLA TYPHIMURIUM, Strain/Indicator: TA98, Metabolic Activation: RAT, LIVER, S-9, AROCLOR 1254 (10%), Method: PREINCUBATION); “inactive; negative” (Test System: AMES SALMONELLA TYPHIMURIUM, Strain/Indicator: TA100, Metabolic Activation: HAMSTER, LIVER, S-9, AROCLOR 1254 (10%), Method: PREINCUBATION); “inactive; negative” under setting [2]; “inactive; negative” (Test System: AMES SALMONELLA TYPHIMURIUM, Strain/Indicator: TA100, Metabolic Activation: RAT, LIVER, S-9, AROCLOR 1254 (10%), Method: PREINCUBATION). The mutagenic call by setting is: (Test System: AMES SALMONELLA TYPHIMURIUM, Strain/Indicator: TA1535, Metabolic Activation: HAMSTER, LIVER, S-9, AROCLOR 1254 (10%), Method: PREINCUBATION) “inactive; negative”; (Test System: AMES SALMONELLA TYPHIMURIUM, Strain/Indicator: TA1535, Metabolic Activation: NONE, Method: PREINCUBATION) “inactive; negative”; (Test System: AMES SALMONELLA TYPHIMURIUM, Strain/Indicator: TA1535, Metabolic Activation: RAT, LIVER, S-9, AROCLOR 1254 (10%), Method: PREINCUBATION) “inactive; negative”; (Test System: AMES SALMONELLA TYPHIMURIUM, Strain/Indicator: TA1537, Metabolic Activation: HAMSTER, LIVER, S-9, AROCLOR 1254 (10%), Method: PREINCUBATION) “inactive; negative”; (Test System: AMES SALMONELLA TYPHIMURIUM, Strain/Indicator: TA1537, Metabolic Activation: NONE, Method: PREINCUBATION) “inactive; negative”; (Test System: AMES SALMONELLA TYPHIMURIUM, Strain/Indicator: TA1537, Metabolic Activation: RAT, LIVER, S-9, AROCLOR 1254 (10%), Method: PREINCUBATION) “inactive; negative”.
Regarding `CC(=O)CC(=O)Nc1ccc(O)cc1`, the mutagenic call is, setting by setting: (Test System: AMES SALMONELLA TYPHIMURIUM, Strain/Indicator: TA100, Metabolic Activation: HAMSTER, LIVER, S-9, KANECHLOR 400, Method: PREINCUBATION) “inactive; negative”; under setting [2], “inactive; negative”.
Turning to `CCOP(=O)(NC(C)C)Oc1ccccc1C(=O)OC(C)C` (stereo unspecified), the mutagenic call reads like this: under setting [3], “active; positive”; (Test System: AMES SALMONELLA TYPHIMURIUM, Strain/Indicator: TA98, Metabolic Activation: RAT, LIVER, S-9, Method: STANDARD PLATE) “active; positive”; under setting [4], “inactive; negative”; (Test System: AMES SALMONELLA TYPHIMURIUM, Strain/Indicator: TA100, Metabolic Activation: RAT, LIVER, S-9, Method: STANDARD PLATE) “inactive; negative”.
`O=[N+]([O-])c1cccc(CBr)c1`: the mutagenic call is “inactive; negative” under setting [1]; “inactive; negative” under setting [2]; “inactive; negative” (Test System: AMES SALMONELLA TYPHIMURIUM, Strain/Indicator: TA100, Metabolic Activation: RAT, LIVER, S-9, AROCLOR 1254, Method: PREINCUBATION).
For the molecule `CC(=O)CC(C)(C)O`, the mutagenic call reads like this: (Test System: AMES SALMONELLA TYPHIMURIUM, Strain/Indicator: TA98, Metabolic Activation: HAMSTER, LIVER, S-9, AROCLOR 1254, Method: STANDARD PLATE) “inactive; negative”; under setting [3], “inactive; negative”; under setting [5], “inactive; negative”; (Test System: AMES SALMONELLA TYPHIMURIUM, Strain/Indicator: TA100, Metabolic Activation: HAMSTER, LIVER, S-9, AROCLOR 1254, Method: STANDARD PLATE) “inactive; negative”; under setting [4], “inactive; negative”; under setting [6], “inactive; negative”. Moreover, the mutagenic call is “inactive; negative” (Test System: AMES SALMONELLA TYPHIMURIUM, Strain/Indicator: TA1535, Metabolic Activation: HAMSTER, LIVER, S-9, AROCLOR 1254, Method: STANDARD PLATE); “inactive; negative” under setting [7]; “inactive; negative” under setting [8]; “inactive; negative” (Test System: AMES SALMONELLA TYPHIMURIUM, Strain/Indicator: TA1537, Metabolic Activation: HAMSTER, LIVER, S-9, AROCLOR 1254, Method: STANDARD PLATE); “inactive; negative” under setting [9]; “inactive; negative” under setting [10]. For the same molecule, the mutagenic call is “inactive; negative” (Test System: AMES SALMONELLA TYPHIMURIUM, Strain/Indicator: TA1538, Metabolic Activation: HAMSTER, LIVER, S-9, AROCLOR 1254, Method: STANDARD PLATE); “inactive; negative” (Test System: AMES SALMONELLA TYPHIMURIUM, Strain/Indicator: TA1538, Metabolic Activation: NONE, Method: STANDARD PLATE); “inactive; negative” (Test System: AMES SALMONELLA TYPHIMURIUM, Strain/Indicator: TA1538, Metabolic Activation: RAT, LIVER, S-9, AROCLOR 1254, Method: STANDARD PLATE); “inactive; negative” (Test System: Mouse lymphoma, Strain/Indicator: L5178Y (tk+/tk-), Metabolic Activation: None, Method: Suspension/plate); “inactive; negative” (Test System: Mouse lymphoma, Strain/Indicator: L5178Y (tk+/tk-), Metabolic Activation: Rat, Liver, S-9, Aroclor 1254, Method: Suspension/plate).
For `O=c1c(Cl)c(Cl)cnn1S(=O)(=O)c1ccc(Cl)cc1`, the mutagenic call is, setting by setting: under setting [3], “inactive; negative”; under setting [5], “inactive; negative”; under setting [4], “inactive; negative”; under setting [6], “inactive; negative”; under setting [7], “inactive; negative”; under setting [8], “inactive; negative”. For the same molecule, the mutagenic call was “inactive; negative” under setting [9] and “inactive; negative” under setting [10].
As for `O=C1OCC(C(Br)Br)=C1Br`, under setting [4], the mutagenic call was “active; positive”.
With `[N-]=[N+]=CC(=O)NCC(=O)NN`, the mutagenic call is “active; positive” under setting [7] and “active; positive” (Test System: UDS RODENT CELLS, Strain/Indicator: THY INCORP (NON-S-PHASE), Metabolic Activation: NONE, Method: AUTORADIOGRAPHY).
